Values quoted from earlier work in patent US20070054964A1 (Wyeth, priority 2005, published 2007).

Columns and labels:
[1] = test system: neuronal norepinephrine re-uptake
[2] = compared with ODV free base
[3] = oral administration, vs venlafaxine, ODV or other salts of ODV
[4] = compared with ODV free base; remark: listed apart in the source
[5] = test system: neuronal serotonin re-uptake
[6] = biological target: H1-histaminergic receptors (Homo sapiens, UniProt P35367)
[7] = in vitro studies, Muth et al. 1991

Sequence of H1-histaminergic receptors (P35367 whole entry): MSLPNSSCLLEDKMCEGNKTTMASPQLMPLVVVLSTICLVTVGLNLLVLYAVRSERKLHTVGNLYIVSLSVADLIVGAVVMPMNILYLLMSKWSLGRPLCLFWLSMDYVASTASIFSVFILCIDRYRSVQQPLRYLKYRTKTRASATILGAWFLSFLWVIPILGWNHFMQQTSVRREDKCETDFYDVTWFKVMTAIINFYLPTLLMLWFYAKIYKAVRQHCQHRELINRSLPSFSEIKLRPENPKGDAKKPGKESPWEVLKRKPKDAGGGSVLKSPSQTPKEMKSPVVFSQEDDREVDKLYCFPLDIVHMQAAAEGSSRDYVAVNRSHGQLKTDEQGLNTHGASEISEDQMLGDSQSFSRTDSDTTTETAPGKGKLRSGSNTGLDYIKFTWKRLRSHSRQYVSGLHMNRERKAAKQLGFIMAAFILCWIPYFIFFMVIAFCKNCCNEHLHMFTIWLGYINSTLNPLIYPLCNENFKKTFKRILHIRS

Structure (SMILES): COc1ccc(C(CN(C)C)C2(O)CCCCC2)cc1 (racemic) [Venlafaxine, (±)-1-[2-(dimethylamino)-1-(4-methoxyphenyl)ethyl]-cyclohexanol]
- inhibition of dopamine re-uptake (dopamine re-uptake): weak inhibitors
- inhibition of neuronal norepinephrine re-uptake [1]: potent inhibitors
- affinity for α1-adrenergic receptors (α1-adrenergic receptors): no significant affinity

Structure (SMILES): CN(C)CC(c1ccc(O)cc1)C1(O)CCCCC1.O=C(O)CCC(=O)O (stereo not drawn) [ODV succinate]
- permeability [2]: improved
- incidence of nausea, vomiting, diarrhea, abdominal pain, headache, vaso-vagal malaise, and/or trismus [3]: lower incidence
- bioavailability [4]: improved

Structure (SMILES): CN(C)CC(c1ccc(O)cc1)C1(O)CCCCC1 (stereo not drawn) [ODV, 1-[2-(dimethyl-amino)-1-(4-phenyl)ethyl]-cyclohexanol]
- affinity for muscarinic receptors (muscarinic receptors): no significant affinity
- inhibition of dopamine re-uptake (dopamine re-uptake): weak inhibitors
- inhibition of neuronal serotonin re-uptake [5]: potent inhibitors
- potency of serotonin re-uptake inhibition compared with venlafaxine [5, 7]: more potent inhibitor
- inhibition of neuronal norepinephrine re-uptake [1]: potent inhibitors
- potency of norepinephrine re-uptake inhibition compared with venlafaxine [1, 7]: more potent inhibitor
- affinity for H1-histaminergic receptors [6]: no significant affinity
- solubility compared with venlafaxine: more soluble
- affinity for α1-adrenergic receptors (α1-adrenergic receptors): no significant affinity
